# In the NIST ThermoML archive (doi:10.1021/je101199g):
# Numbers after ± are expanded uncertainties.
# Details: Crystal
row,SMILES,Normal melting temperature [°C]
1,Cc1ncc[nH]1 [2-methylimidazole],146.23 ± 1.2
2,COC(=O)OC [dimethyl carbonate],5.01 ± 0.62
3,O=C(Oc1ccccc1)Oc1ccccc1 [diphenyl carbonate],80.81 ± 1.2
4,CCCCCCCCCCCCO [dodecan-1-ol],23.36 ± 0.62
